Assay results as given in patent US20060178342A1, “Hyaluronan as a cytotoxic agent, drug pre-sensitizer and chemo-sensitizer in the treatment of disease” (priority 2001, published 2006).

System: Human LIM1215 colon cancer xenografts
Assay: 14-week efficacy study, irinotecan ± HA in colon cancer xenografts
Assay type: in vivo, mouse
Conditions: 13.3, 26.6 or 150 mg/kg HA, IV bolus Day 1 of 14 × q7 D
Excerpt: Human LIM1215 colon cancer xenografts were inoculated into the mammary fat pad of athymic […] nude mice. Mice were randomly distributed into eight treatment groups (8 mice per group).
The treatment regime comprised of injections on Day 1 of a 7-day cycle for duration of fourteen weeks. Primary tumor volume, animal body mass, energy levels and food consumption were monitored three times weekly.
Athymic CBA/WEHI nude female mice (Walter and Eliza Hall Research Institute, Melbourne, Australia), 6 to 8 weeks old, were maintained under specific pathogen-free conditions, with sterilized food and water available ad libitum. Each mouse received one injection containing 1×10^7 cells in 50-100 μl. […]
Any animals with a tumor volume expressed as a percentage of body weight outside 0.25±0.10 (mean±1 SD) were excluded from data analysis. […]
The experimental end-point for each animal occurred either when the animal had to be euthanized due to a high degree of disease progression or when the 14-week study had been completed. The animals were monitored three times weekly and the following criteria were established to determine whether an animal had reached the experimental end point: tumour mass is greater than 10% of the animals total body mass; the animal is metabolically stressed (i.e. losing weight); or the animal is immobilized.

## hyaluronan [HA]
  disease course with HA alone: progressive disease
